Data taken from patent US8791132B2, “Compounds and methods for treatment of hypertension” (Medivation Technologies, Inc., priority 2011, dated 2014).
Values joined by “and” are separate entries in the source; they are usually repeats but may differ in a detail not shown here. Equal entries are not always repeated. Where two headings read alike, the source gives them in different places. Each block holds one molecule with its values, some of them ahead of it.

What was measured:
[1] = target: T1, human recombinant adrenergic α2B receptor (Homo sapiens, UniProt P18089); assay: Radioligand binding, adrenergic α2B ([3H]Rauwolscine); conditions: for Ki: read-out: Ki α2B; for Percentage inhibition of ligand binding, Adrenergic α2B (0.03 μM) / Percentage inhibition of ligand binding, Adrenergic α2B: 0.03 µM
T1 construct: expressed in transfected cells; host or cells: CHO-K1
T1 sequence (P18089 1-450): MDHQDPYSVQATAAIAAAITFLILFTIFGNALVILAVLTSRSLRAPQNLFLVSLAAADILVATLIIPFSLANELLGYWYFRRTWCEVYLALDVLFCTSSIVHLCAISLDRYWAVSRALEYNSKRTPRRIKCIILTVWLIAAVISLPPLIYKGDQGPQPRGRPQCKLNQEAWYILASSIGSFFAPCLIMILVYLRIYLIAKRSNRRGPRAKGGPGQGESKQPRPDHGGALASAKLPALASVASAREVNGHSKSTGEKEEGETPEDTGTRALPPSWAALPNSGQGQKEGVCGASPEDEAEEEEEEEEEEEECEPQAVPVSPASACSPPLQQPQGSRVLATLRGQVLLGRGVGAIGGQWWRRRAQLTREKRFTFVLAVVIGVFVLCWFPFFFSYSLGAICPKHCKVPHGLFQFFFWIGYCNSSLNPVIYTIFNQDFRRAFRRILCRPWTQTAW
How it was run: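 Membranes from CHO-K1 cells expressing human recombinant α2B, in 50 mM Tris-HCl pH 7.4, 12.5 mM MgCl2, 1 mM EDTA, 0.2% BSA, incubated with compound and 2.5 nM [3H]Rauwolscine, 60 min, 25 °C.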

[2] = target: T2, human recombinant adrenergic α2A receptor (Homo sapiens, UniProt P08913); assay: Radioligand binding, adrenergic α2A ([3H]MK-912); conditions: for Percentage inhibition of ligand binding, Adrenergic α2A (0.1 μM) / Percentage inhibition of ligand binding, Adrenergic α2A: compound at 0.1 μM, 0.1 µM; for Percentage inhibition of ligand binding, Adrenergic α2A: repeat assays, each datapoint shown
T2 construct: expressed in transfected cells; host or cells: insect Sf9 cells
T2 sequence (P08913 1-465): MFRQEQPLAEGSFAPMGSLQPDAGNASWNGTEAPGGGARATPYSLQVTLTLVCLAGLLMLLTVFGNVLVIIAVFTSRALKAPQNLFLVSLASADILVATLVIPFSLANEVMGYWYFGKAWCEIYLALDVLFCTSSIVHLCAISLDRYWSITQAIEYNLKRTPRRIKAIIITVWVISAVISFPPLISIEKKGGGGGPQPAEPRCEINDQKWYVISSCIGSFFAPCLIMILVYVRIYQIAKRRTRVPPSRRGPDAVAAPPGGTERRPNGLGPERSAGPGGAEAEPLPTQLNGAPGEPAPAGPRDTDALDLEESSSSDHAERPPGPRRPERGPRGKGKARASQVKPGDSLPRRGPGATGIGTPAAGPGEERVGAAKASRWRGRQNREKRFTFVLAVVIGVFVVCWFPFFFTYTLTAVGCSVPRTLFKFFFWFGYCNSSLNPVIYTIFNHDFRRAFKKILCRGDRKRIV
How it was run: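 Sf9 membranes, 1 nM [3H]MK-912, 60 min, 25 °C, Tris-HCl pH 7.4/MgCl2/EDTA buffer. NSB: 10 μM WB-4101. Filtration, counting; % inhibition of specific binding.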

[3] = target: T3, rat adrenergic α1B receptor (Rattus norvegicus, UniProt P15823); assay: Radioligand binding, adrenergic α1B ([3H]Prazosin); conditions: for Percentage inhibition of ligand binding, Adrenergic α1B (0.1 μM) / Percentage inhibition of ligand binding, Adrenergic α1B: 0.1 µM
T3 construct: rat adrenergic α1B receptor obtained from Wistar Rat liver; from tissue; host or cells: Wistar rat liver
T3 sequence (P15823 1-515): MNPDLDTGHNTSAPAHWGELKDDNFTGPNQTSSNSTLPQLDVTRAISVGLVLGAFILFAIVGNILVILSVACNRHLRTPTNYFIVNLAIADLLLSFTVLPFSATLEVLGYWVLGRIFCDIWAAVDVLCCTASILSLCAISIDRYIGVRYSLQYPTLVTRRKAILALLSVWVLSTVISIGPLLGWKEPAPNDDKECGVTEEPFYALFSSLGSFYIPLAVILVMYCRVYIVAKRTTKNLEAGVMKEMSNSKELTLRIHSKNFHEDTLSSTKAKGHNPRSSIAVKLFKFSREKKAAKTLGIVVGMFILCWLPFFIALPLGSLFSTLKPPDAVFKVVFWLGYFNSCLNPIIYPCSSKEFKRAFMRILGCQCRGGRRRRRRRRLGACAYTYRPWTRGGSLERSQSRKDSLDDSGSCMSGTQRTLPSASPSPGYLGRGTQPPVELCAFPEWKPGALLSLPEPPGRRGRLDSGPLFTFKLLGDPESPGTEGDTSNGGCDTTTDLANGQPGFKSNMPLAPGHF
How it was run: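 Rat α1B receptor from Wistar rat liver was incubated with 0.25 nM [3H]prazosin for 60 min at 25 °C in 50 mM Tris-HCl, pH 7.4, 0.5 mM EDTA. Non-specific binding was defined with 10 μM phentolamine. Bound radioligand was measured by filtration and counting, reported as percent inhibition of specific binding.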

[4] = compound at 0.03 μM, [3H]Rauwolscine, repeat datapoints each shown
[5] = [3H]MK-912, repeat datapoints each shown
[6] = compound at 0.1 μM, [3H]Prazosin, repeat datapoints each shown
[7] = 0.03 μM compound, read-out: Percentage inhibition of ligand binding, Adrenergic α2B
[8] = 0.1 μM compound, read-out: Percentage inhibition of ligand binding, Adrenergic α2A
[9] = 0.1 μM compound, read-out: Percentage inhibition of ligand binding, Adrenergic α1B
[10] = compound at 0.03 μM, [3H]Rauwolscine, repeat assays, each datapoint shown

SMILES: Cc1ccc2c(c1)c1c(n2CC(C)(O)c2cccnc2)CCN2CCCC12 (single isomer, unassigned) [II-127b, 1-(9-methyl-1,2,3,4,5,10c-hexahydro-3a,6-diaza-cyclopenta[c]fluoren-6-yl)-2-pyridin-3-yl-propan-2-ol]
Percentage inhibition of ligand binding, Adrenergic α2B (0.03 μM) [1, 4]: 104%
Percentage inhibition of ligand binding, Adrenergic α2A (0.1 μM) [2, 5]: 54%
Percentage inhibition of ligand binding, Adrenergic α1B (0.1 μM) [3, 6]: 65%

SMILES: Cc1ccc2c(c1)c1c(n2CC(C)(OC(=O)C(C)(C)C)c2cccnc2)CCN(C)C1 (stereo not drawn) [II-16a, 2,2-dimethyl-propionic acid 2-(2,8-dimethyl-1,2,3,4-tetrahydro-pyrido[4,3-b]indol-5-yl)-1-methyl-1-pyridin-3-yl-ethyl ester]
inhibition at 0.03 µM [1, 7]: 39%
inhibition at 0.1 µM [2, 8]: 11%
inhibition at 0.1 µM [3, 9]: 20%

SMILES: Cc1ccc2c(c1)c1c(n2CC(C)(OC(=O)C(C)(C)C)c2cccnc2)CCN(C)C1 (single isomer, unassigned) [II-16b, 2,2-dimethyl-propionic acid 2-(2,8-dimethyl-1,2,3,4-tetrahydro-pyrido[4,3-b]indol-5-yl)-1-methyl-1-pyridin-3-yl-ethyl ester]
Percentage inhibition of ligand binding, Adrenergic α2B ([1]; 0.03 μM compound): 73%
inhibition at 0.03 µM [1, 7]: 65%
inhibition at 0.1 µM ([1]; 0.1 μM compound, read-out: Percentage inhibition of ligand binding, Adrenergic α2B): 88%
Ki [1]: 5.58 nM
inhibition at 0.1 µM [2, 8]: 32%
inhibition at 0.03 µM ([3]; 0.03 μM compound, read-out: Percentage inhibition of ligand binding, Adrenergic α1B): 16%
Percentage inhibition of ligand binding, Adrenergic α1B ([3]; 0.1 μM compound): 46%
inhibition at 0.1 µM [3, 9]: 32%

SMILES: Cc1ccc2c(c1)c1c(n2CC(C)(O)c2ccc(C)nc2)CCN2CCCC12 (stereo not drawn) [II-128a, 1-(9-methyl-1,2,3,4,5,10c-hexahydro-3a,6-diaza-cyclopenta[c]fluoren-6-yl)-2-(6-methyl-pyridin-3-yl)-propan-2-ol]
inhibition at 0.03 µM ([1]; read-out: Percentage inhibition of ligand binding, Adrenergic α2B (0.03 μM), compound at 0.03 μM, [3H]Rauwolscine, repeat datapoints each shown): 97%
inhibition at 0.1 µM ([2]; read-out: Percentage inhibition of ligand binding, Adrenergic α2A (0.1 μM), compound at 0.1 μM, [3H]MK-912, repeat datapoints each shown): 34%
inhibition at 0.1 µM ([3]; read-out: Percentage inhibition of ligand binding, Adrenergic α1B (0.1 μM), compound at 0.1 μM, [3H]Prazosin, repeat datapoints each shown): 61%

SMILES: Cc1ccc2c(c1)c1c(n2CC(O)c2ccncc2)CC2CCCCN2C1 (racemic) [75a]
Percentage inhibition of ligand binding, Adrenergic α2B [1, 10]: 77%
Percentage inhibition of ligand binding, Adrenergic α2A ([2]; [3H]MK-912): 11%
Percentage inhibition of ligand binding, Adrenergic α1B ([3]; compound at 0.1 μM, [3H]Prazosin, repeat assays, each datapoint shown): 61%

SMILES: Cc1ccc2c(c1)c1c(n2CC(O)c2ccccc2F)CN(C)CC1 (single isomer, unassigned) [II-49a, 2-(2,6-dimethyl-3,4-dihydro-1H-pyrido[3,4-b]indol-9(2H)-yl)-1-(2-fluorophenyl)ethanol]
inhibition at 0.03 µM [1, 7]: 43%
inhibition at 0.1 µM [2, 8]: 34%
Percentage inhibition of ligand binding, Adrenergic α1B ([3]; 0.1 μM compound): 47%

Other lines, results leading:

Percentage inhibition of ligand binding, Adrenergic α2B (0.03 μM) [1, 4]: 61%
Percentage inhibition of ligand binding, Adrenergic α2A (0.1 μM) [2, 5]: 6%
Percentage inhibition of ligand binding, Adrenergic α1B (0.1 μM) [3, 6]: 2%
SMILES: Cc1ccc2c(c1)c1c(n2CC(C)(O)c2cccnc2)CCN(C)C1C (single isomer, unassigned) [II-152b]

Percentage inhibition of ligand binding, Adrenergic α2B (0.03 μM) [1, 4]: 100% and 103%
Ki [1]: 0.22 nM
Ki [2]: 9.18 nM
Percentage inhibition of ligand binding, Adrenergic α2A (0.03 μM) ([2]; compound at 0.03 μM, [3H]MK-912, repeat datapoints each shown, 0.03 µM): 54%
Percentage inhibition of ligand binding, Adrenergic α2A (0.1 μM) [2, 5]: 80% and 85%
Percentage inhibition of ligand binding, Adrenergic α1B (0.03 μM) ([3]; compound at 0.03 μM, [3H]Prazosin, repeat datapoints each shown, 0.03 µM): 77%
Percentage inhibition of ligand binding, Adrenergic α1B (0.1 μM) [3, 6]: 93% and 96%
SMILES: Cc1ccc2c(c1)c1c(n2CC(C)(O)c2ccc(F)cc2)CCN2CCCC12 (single isomer, unassigned) [II-121b, 2-(4-fluoro-phenyl)-1-(9-methyl-1,2,3,4,5,10c-hexahydro-3a,6-diaza-cyclopenta[c]fluoren-6-yl)-propan-2-ol]

Percentage inhibition of ligand binding, Adrenergic α2B (0.03 μM) [1, 4]: 102%
Percentage inhibition of ligand binding, Adrenergic α2A (0.1 μM) [2, 5]: 59%
Percentage inhibition of ligand binding, Adrenergic α1B (0.1 μM) [3, 6]: 98%
SMILES: Cc1cnc2c(c1)c1c(n2CC(O)c2ccncc2)CCN2CCCC12 (single isomer, unassigned) [IV-209c, 2-(9-Methyl-1,2,3,4,5,10c-hexahydro-3a,6,7-triaza-cyclopenta[c]fluoren-6-yl)-1-pyridin-4-yl-ethanol]

Percentage inhibition of ligand binding, Adrenergic α2B [1, 10]: 28%
Percentage inhibition of ligand binding, Adrenergic α2A ([2]; [3H]MK-912): −6%
inhibition at 0.1 µM ([3]; compound at 0.1 μM, [3H]Prazosin, repeat assays, each datapoint shown, read-out: Percentage inhibition of ligand binding, Adrenergic α1B): 16%
SMILES: CC(C)(O)CCN1CCc2c(c3cc(Cl)ccc3n2CC(O)c2ccncc2)C1 (single isomer, unassigned) [11a, 4-[8-chloro-5-(2-hydroxy-2-pyridin-4-yl-ethyl)-1,3,4,5-tetrahydro-pyrido[4,3-b]indol-2-yl]-2-methyl-butan-2-ol]
